Data as given in patent US6423689B1, “Peptidyl calcium channel blockers” (Warner-Lambert Company, priority 1997, dated 2002).
Read-outs that look alike come from different tables or passages of the source. One block for each compound: values may come before it.

What was measured:
[1] = target: T1, N-type Ca2+ channels in IMR-32 cells (Homo sapiens, UniProt Q00975); assay: Inhibition of N-type calcium flux in IMR-32 cells (Indo-1 fluorescence, nitrendipine present); format: cell-based; details: for IC50: IMR-32 cells, 5 μM nitrendipine, K+ depolarization; for inhibition at 1 µM / inhibition at 10 µM: IMR-32
T1 construct: host or cells: IMR-32 cells, differentiated with dibutyryl cAMP and bromodeoxyuridine
Outline: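 With L-type flux blocked by 5 μM nitrendipine, N-type Ca2+ entry was read as the Indo-1 emission ratio (400/490 nm, excitation 350 nm) at 30° C after KCl depolarization.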

[2] = test system: DBA/2 mice; assay: animal or person; format: in vivo; details: for responders at 30 mg/kg: Mus musculus, iv, read-out: Number of Mice Protected from Tonic Convulsions
Procedure: Audiogenic Seizure Model in DBA/2 Mice
In Vivo Biological Protocol
A compound of the present invention was dissolved in water using 10% (weight/volume) Emulphor (GAF Cop., Wayne N.J. surfactant. Substances were administered by intravenous injection the retro-orbital venous sinus. […] All the male mice, 3-4 weeks old were obtained from Jackson Laboratories Bar Harbour, Me. Immediately before anticonvulsant testing, mice were placed upon a wire mesh, 4 inches square suspended from a steel rod. The square was slowly inverted through 180 degree and mice observed for 30 seconds. Any mouse falling from the wire mesh was scored as ataxia.
Mice were placed into an enclosed acrylic plastic chamber (21 cm in height, approximately 30 cm diameter) with a high-frequency speaker (4 cm diameter) in the center of the top lid. An audio signal generator (Protek model B-810) was used to produce a continuous sinusoidal tone that was swept linearly in frequency between 8 kHz and 16 kHz once each 10 msec. The average sound pressure level (SPL) during stimulation was approximately 100 dB at the floor of the chamber. Mice were placed within the chamber and allowed to acclimatize for 1 minute. DBA/2 mice in the vehicle-treated group responded to the sound stimulus (applied until tonic extension occurred, or for a maximum of 60 sec) with a characteristic seizure sequence consisting of wild running followed by clonic seizures, and later by tonic extension, and finally by respiratory arrest and death in 80% or more of the mice. In vehicle-treated mice, the entire sequence of seizures to respiratory arrest lasts approximately 15-20 seconds.
The incidence of all the seizure phases in the drug-treated and vehicle-treated mice was recorded, and the occurrence of tonic seizures were used for calculating anticonvulsant ED50 values by probit analysis. Mice were used only once for testing at each time and dose point.

[3] = test system: K+ channels in superior cervical ganglion (SCG) neurons; assay: Whole-cell voltage clamp, K+ current in SCG neurons; format: cell-based, rat; details: 10 μM
Outline: (§1)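 Percent inhibition of control amplitude at steady-state block is the read-out: peak inward Na+ current at 0 mV, sustained K+ current at +50 mV, 35 msec steps every 10 sec from −65 to −55 mV. Recordings used whole-cell clamp of trypsin-dissociated SCG neurons, pH 7.4 external and pipette solutions, compounds applied by local perfusion.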

[4] = test system: Na+ channels in superior cervical ganglion (SCG) neurons; assay: Whole-cell voltage clamp, Na+ current in SCG neurons; format: cell-based, rat; details: 10 μM
Outline: as §1

[5] = target: T2, L-type Ca2+ channels in A10 cells (Rattus norvegicus, UniProt P22002); assay: Inhibition of L-type calcium flux in A10 cells (FLIPR); format: cell-based
T2 construct: which endogenously expresses L-type calcium channels; host or cells: A10 rat aortic smooth muscle cells
Procedure: Measurement of L-type Ca^2+ Channel Blocking Potencies of Compounds in A10 cells
Calcium flux through voltage-sensitive calcium channels was assessed by time-resolved monitoring of the fluorescence of pre-loaded calcium-sensitive dyes using FLIPR, a fluorescent image plate reader (Molecular Devices Co.). The A10 smooth muscle cell line derived from embryonic thoracic aorta of the DBIX rat (ATCC, CRL-1476) which endogenously expresses L-type calcium channels. The growth media for A10 cells was Ham's F12/DME high glucose (Irvine Scientific, 9052), supplemented with 20% fetal bovine serum (HyClone Labs, A-1115-L), and 1% each of L-glutamine and antibiotic-antimycotic (same source as above).
Cells were grown to confluency and replated on black-sided 96-well plates (Costar, 3603) for use in FLIPR. Two days after replating, growth media was removed and cells were loaded at 37° C. with 100 μL media containing 1 μM Oregon Green 488 Bapta-1 dye (Molecular Probes, O-6807) for 1 to 3 hours. The dye-containing media was then washed away with buffer (composition in mM: 1.25 CaCl2, 1.2 MgSO4, 11 glucose, 10 HEPES, 3.0 KCl, 137.0 NaCl, pH 7.4 with Tris base) in a Denley Cellwash (Labsystems, CW018B). The residual buffer volume was adjusted to 50 μL. A 5 minute drug-pre-incubation period at 35° C. was initiated when 50 μL of drug-containing buffer was pipetted into the cell plate with the 96-well pipettor integrated in the FLIPR apparatus. Fluorescent counts were monitored at 20 second intervals for 360 seconds, beginning 60 seconds prior to the delivery of drug-containing buffer. Following drug addition, 100 μL aliquots of a high K^+, depolarizing stimulus (composition in mM: 1.25 CaCl2, 1.2 MgSO4, 11 glucose, 10 HEPES, 140.0 KCl, pH 7.4 with Tris base) were added to each well and fluorescence was monitored at 1 second intervals for 120 seconds, beginning 10 seconds prior to the stimulus addition. CCD camera exposure time was 0.4 seconds, laser excitation was at 488 nm with a power of 0.2-0.5W, and a 510 to 560 nm bandpass interference filter preceded the camera.
Data was analyzed as a summation of fluorescent counts above basal during the stimulation period (an approximation of area under the curve), after normalizing the data with a spatial uniformity correction (for variations in laser illumination and cell density) and a negative control correction (zero calcium increase defined as the fluorescence reading in the presence of saturating pharmacologic block of the respective calcium channel). Drug effects were expressed as percent inhibition of fluorescence from an average of 8 K^+-stimulated wells which were pre-treated in the drug incubation period with buffer only.
In the A10 cells, the pharmacologic agent used to define zero calcium influx was nitrendipine (RBI, N-144), at a final concentration of 1.0×10^−6 M.

[6] = 30 mg/Kg iv, 15 min post treatment
[7] = 30 mg/Kg iv, 45 min post treatment

T2 sequence (P22002 whole entry): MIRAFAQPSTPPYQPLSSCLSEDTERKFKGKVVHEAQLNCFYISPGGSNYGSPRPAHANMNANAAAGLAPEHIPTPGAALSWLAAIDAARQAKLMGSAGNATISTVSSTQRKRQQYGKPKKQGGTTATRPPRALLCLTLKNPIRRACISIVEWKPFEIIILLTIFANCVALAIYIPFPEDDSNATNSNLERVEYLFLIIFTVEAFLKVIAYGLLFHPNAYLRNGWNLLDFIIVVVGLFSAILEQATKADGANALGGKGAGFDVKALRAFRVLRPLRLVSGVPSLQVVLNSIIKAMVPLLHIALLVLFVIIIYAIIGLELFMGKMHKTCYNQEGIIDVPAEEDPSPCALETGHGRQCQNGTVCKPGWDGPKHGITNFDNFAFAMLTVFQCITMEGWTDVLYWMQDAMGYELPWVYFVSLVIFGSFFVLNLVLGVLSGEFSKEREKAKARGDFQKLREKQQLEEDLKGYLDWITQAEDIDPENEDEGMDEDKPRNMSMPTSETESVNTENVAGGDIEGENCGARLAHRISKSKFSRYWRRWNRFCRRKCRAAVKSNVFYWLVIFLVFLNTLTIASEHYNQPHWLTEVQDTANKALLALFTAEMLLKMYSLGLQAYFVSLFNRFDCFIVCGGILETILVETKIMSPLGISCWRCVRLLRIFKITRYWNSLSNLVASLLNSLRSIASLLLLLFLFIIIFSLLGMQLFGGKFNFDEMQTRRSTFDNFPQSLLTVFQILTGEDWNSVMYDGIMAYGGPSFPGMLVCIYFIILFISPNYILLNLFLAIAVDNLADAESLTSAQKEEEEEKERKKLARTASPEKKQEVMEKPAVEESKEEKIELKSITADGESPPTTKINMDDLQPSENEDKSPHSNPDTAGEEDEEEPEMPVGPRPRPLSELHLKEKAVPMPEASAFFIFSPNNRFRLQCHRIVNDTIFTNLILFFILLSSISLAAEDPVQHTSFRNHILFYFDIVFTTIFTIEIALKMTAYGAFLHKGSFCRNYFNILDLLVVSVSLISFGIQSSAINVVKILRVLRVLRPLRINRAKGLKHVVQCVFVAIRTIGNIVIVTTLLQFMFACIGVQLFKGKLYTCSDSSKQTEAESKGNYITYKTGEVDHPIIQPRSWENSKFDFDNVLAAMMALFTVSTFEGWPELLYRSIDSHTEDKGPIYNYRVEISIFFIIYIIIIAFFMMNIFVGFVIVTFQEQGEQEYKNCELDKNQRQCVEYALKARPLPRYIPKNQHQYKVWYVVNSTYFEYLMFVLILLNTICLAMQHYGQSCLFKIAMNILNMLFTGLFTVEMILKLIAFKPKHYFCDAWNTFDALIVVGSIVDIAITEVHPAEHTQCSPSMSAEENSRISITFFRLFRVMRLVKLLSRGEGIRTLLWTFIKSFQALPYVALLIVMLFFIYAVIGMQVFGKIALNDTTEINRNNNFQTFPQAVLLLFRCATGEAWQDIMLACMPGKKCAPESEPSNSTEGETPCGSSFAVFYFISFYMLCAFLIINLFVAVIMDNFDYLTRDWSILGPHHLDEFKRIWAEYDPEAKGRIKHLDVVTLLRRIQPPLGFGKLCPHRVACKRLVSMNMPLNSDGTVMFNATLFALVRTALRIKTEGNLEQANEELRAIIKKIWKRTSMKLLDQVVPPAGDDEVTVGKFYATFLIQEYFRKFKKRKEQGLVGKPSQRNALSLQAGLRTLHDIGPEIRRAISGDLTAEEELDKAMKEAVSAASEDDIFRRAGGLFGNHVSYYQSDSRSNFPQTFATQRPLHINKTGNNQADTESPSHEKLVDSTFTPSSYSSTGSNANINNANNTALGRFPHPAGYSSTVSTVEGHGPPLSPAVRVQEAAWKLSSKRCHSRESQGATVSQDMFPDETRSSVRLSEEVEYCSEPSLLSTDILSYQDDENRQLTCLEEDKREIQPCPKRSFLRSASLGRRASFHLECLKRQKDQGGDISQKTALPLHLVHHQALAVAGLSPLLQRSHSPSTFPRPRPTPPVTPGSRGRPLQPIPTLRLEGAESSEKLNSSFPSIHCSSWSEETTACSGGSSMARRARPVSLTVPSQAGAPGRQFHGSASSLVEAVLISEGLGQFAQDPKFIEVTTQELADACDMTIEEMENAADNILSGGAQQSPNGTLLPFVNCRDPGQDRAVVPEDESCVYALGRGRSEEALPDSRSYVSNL
T2 sequence (P54290 25-944 partner limits assumed): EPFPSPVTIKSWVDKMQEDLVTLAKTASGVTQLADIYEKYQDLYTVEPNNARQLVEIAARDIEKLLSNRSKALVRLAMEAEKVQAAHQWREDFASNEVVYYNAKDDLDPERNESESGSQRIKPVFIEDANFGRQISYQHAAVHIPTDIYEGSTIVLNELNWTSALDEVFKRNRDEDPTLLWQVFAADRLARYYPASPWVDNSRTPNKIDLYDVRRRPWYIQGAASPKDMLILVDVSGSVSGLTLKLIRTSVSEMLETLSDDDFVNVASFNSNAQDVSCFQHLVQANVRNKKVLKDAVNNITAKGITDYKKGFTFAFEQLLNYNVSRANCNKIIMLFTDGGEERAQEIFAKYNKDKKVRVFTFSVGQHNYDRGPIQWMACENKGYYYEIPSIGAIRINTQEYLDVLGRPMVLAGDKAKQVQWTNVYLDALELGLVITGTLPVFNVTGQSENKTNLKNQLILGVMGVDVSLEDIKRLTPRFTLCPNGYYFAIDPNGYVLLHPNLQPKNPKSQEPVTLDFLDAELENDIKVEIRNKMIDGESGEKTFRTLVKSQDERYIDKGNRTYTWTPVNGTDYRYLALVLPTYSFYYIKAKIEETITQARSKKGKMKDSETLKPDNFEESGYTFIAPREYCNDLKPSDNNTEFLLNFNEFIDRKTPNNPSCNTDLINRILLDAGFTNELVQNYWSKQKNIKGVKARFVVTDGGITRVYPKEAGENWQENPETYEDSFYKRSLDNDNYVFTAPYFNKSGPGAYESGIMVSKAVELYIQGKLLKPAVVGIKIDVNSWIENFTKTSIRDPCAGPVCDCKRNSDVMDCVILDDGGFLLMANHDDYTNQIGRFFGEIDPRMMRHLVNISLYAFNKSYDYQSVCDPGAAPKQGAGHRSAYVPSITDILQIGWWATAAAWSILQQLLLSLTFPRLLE
T2 sequence (P54290 945-1091 partner limits assumed): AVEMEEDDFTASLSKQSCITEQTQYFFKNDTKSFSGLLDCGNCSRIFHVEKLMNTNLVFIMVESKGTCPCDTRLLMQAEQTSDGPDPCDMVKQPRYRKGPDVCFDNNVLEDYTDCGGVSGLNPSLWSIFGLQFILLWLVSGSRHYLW
T2 sequence (P54287 whole entry partner): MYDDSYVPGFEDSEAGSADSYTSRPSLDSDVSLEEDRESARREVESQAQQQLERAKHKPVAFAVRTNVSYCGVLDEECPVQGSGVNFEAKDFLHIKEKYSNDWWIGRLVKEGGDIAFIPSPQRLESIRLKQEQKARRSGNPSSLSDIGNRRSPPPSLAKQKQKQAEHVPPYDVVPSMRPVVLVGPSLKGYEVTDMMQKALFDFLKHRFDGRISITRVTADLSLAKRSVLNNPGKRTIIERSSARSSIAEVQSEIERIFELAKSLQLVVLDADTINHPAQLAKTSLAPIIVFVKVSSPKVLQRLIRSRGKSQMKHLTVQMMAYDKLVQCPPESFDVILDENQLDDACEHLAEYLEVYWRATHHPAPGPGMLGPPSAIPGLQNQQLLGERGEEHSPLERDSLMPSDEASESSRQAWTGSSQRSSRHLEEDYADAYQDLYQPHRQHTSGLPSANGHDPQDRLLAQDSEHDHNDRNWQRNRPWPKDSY

Compound: CC(C)C[C@H](NC(=S)Nc1ccc(C(C)(C)C)cc1)C(=O)N[C@@H](Cc1ccc(OCc2ccccc2)cc1)C(=O)OC(C)(C)C (relative stereo) [Example 44, [S-(R*,R*)]-3-(4-Benzyloxy-phenyl)-2-{2-[3-(4-tert-butyl-phenyl)-thioureido]-4-methyl-pentanoylamino}-propionic acid, tert-butyl ester]
Inhibition of Calcium Flux in IMR-32 Cells % Inhibition at 1 μM [1]: 28% | Inhibition of Calcium Flux in IMR-32 Cells % Inhibition at 10 μM [1]: 71% | Number of Mice Protected from Tonic Convulsions [2, 6]: 0/5

Compound: CC(C)C[C@H](NC(=O)N1CCCCCC1)C(=O)N[C@@H](Cc1ccc(OCc2ccccc2)cc1)C(=O)NC(CO)CO (relative stereo) [Example 257, [S-(R*,R*)]-Azepane-1-carboxylic acid {1-[2-(4-benzyloxy-phenyl)-1-(2-hydroxy-1-hydroxymethyl-ethylcarbamoyl)-ethylcarbamoyl]-3-methyl-butyl}-amide]
Inhibition of Calcium Flux in IMR-32 Cells % Inhibition at 1 μM [1]: 42% | Inhibition of Calcium Flux in IMR-32 Cells % Inhibition at 10 μM [1]: 90% | IC50 [1]: 1.4 µM | Inhibition of K+ Current, % Inhibition at 10 μM [3]: 43% | Inhibition of Na+ Current, % Inhibition at 10 μM [4]: 5% | Dead mice (remark beside the protection count) [2, 6]: (1 dead) | Number of Mice Protected from Tonic Convulsions [2, 6]: 3/4 | Dead mice (remark beside the protection count) [2, 7]: 2 (dead) | Number of Mice Protected from Tonic Convulsions [2, 7]: 3/3

Compound: CC(C)C[C@H](NC(=O)N1CCCCCC1)C(=O)N[C@@H](Cc1ccc(OCc2ccccc2)cc1)C(=O)NC1CCN(Cc2ccccc2)C1 (stereo in doubt) [Example 183, Azepane-1-carboxylic acid {(S)-1-[(S)-2-(4-benzyloxy-phenyl)-1-[1-benzyl-(S)-pyrrolidin-3-ylcarbamoyl]-ethylcarbamoyl]-3-methyl-butyl}-amide]
IC50 [1]: 0.3 µM | IC50 [5]: 0.22 µM | responders at 30 mg/kg ([2]; 0.25 h): 100% | Dead mice (remark beside the protection count) ([2]; mouse, in vivo): dead

inhibition at 1 µM [1]: 71% | inhibition at 10 µM [1]: 86% | IC50 [1]: 0.17 µM | IC50 [5]: 3 µM | melting point: 142 to 143 °C
Compound: CC(C)C[C@H](NS(=O)(=O)c1ccc(C(C)(C)C)cc1)C(=O)N[C@@H](Cc1ccc(OCc2ccccc2)cc1)C(=O)OC(C)(C)C [Example 36, [S-(R*,R*)]-3-(4-Benzyloxy-phenyl)-2(S)-[2(S)-(4-tert-butyl-benzenesulfonylamino)-4-methyl-pentanoylamino]-propionic acid tert-butyl ester]
Inhibition of K+ Current, % Inhibition at 10 μM [3]: 92% | Inhibition of Na+ Current, % Inhibition at 10 μM [4]: 91%

Compound: CC(C)C[C@H](NC(=O)N1CCCCCC1)C(=O)N[C@@H](Cc1ccc(OCc2ccccc2)cc1)C(=O)NCCN1CCCCC1 [Example 171, [S-(R*,R*)]-Azepane-1-carboxylic acid {1-[2-(4-benzyloxy-phenyl)-1-(2-piperidin-1-yl-ethylcarbamoyl)-ethylcarbamoyl]-3-methyl-butyl}-amide]
inhibition at 1 µM [1]: 62% | IC50 [1]: 0.46 µM | IC50 [5]: 0.27 µM | responders at 30 mg/kg ([2]; 0.75 h): 0%

Compound: CC(C)C[C@H](NC(=O)N1CCCCCC1)C(=O)N[C@@H](Cc1ccc(OCc2ccccc2)cc1)C(=O)N1CCSCC1 [Example 221, [S-(R*,R*)]-Azepane-1-carboxylic acid {1-[1-(4-benzyloxy-benzyl)-2-thiomorpholin-4-yl-2-oxo-ethylcarbamoyl]-3-methyl-butyl}-amide]
inhibition at 1 µM [1]: 65% | inhibition at 10 µM [1]: 93% | IC50 [5]: 0.6 µM | responders at 30 mg/kg ([2]; 0.25 h): 20% | responders at 30 mg/kg ([2]; 0.75 h): 0%

Compound: CC(C)C[C@H](NC(=O)N1CCCCCC1)C(=O)N[C@@H](Cc1ccc(OCc2ccccc2)cc1)C(=O)NCCc1ccccn1 [Example 231]
inhibition at 1 µM [1]: 55% | inhibition at 10 µM [1]: 95% | IC50 [1]: 1.11 µM | IC50 [5]: 0.67 µM | responders at 30 mg/kg ([2]; 0.25 h): 0%

Compound: CC(C)CC(NC(=O)N1CCCCCC1)C(=O)NC(Cc1ccc(OCc2ccccc2)cc1)C(=O)NC(CO)C(C)C (stereo not shown) [Example 253, Azepane-1-carboxylic acid {1-[2-(4-benzyloxy-phenyl)-1-(1-hydroxymethyl-2-methyl-propylcarbamoyl)-ethylcarbamoyl]-3-methyl-butyl}-amide]
inhibition at 1 µM [1]: 60% | inhibition at 10 µM [1]: 93% | IC50 [1]: 1.1 µM | Inhibition of K+ Current, % Inhibition at 10 μM [3]: 62% | Inhibition of Na+ Current, % Inhibition at 10 μM [4]: 5% | responders at 30 mg/kg ([2]; 0.25 h): 0%
